Measurements reported in ChEMBL document CHEMBL1152699, “Taste-guided identification of high potency TRPA1 agonists from Perilla frutescens” (Bioorg Med Chem, 2009).
Calls of active or inactive are those of the source. The rule behind the calls is not given here.

What was measured:
Format in all cases: functional, cell-based
[1] = molecular target: Transient receptor potential cation channel subfamily M member 8 (Rattus norvegicus, UniProt Q8R455); test: (§1) Agonist activity at rat recombinant TRPM8 receptor expressed in HEK293 cells assessed as increase in intracellular calcium concentration by fluorimetric test
[2] = molecular target: Transient receptor potential cation channel subfamily M member 8 (Rattus norvegicus) (UniProt Q8R455); test: as §1
[3] = molecular target: Transient receptor potential cation channel subfamily A member 1 (Rattus norvegicus) (UniProt Q6RI86); test: Agonist activity at rat recombinant TRPA1 receptor expressed in HEK293 cells assessed as increase in intracellular calcium concentration by fluorimetric test relative to 100 uM allylisothiocyanate
[4] = molecular target: Transient receptor potential cation channel subfamily M member 8 (Rattus norvegicus) (UniProt Q8R455); test: Antagonist activity at rat recombinant TRPM8 receptor expressed in HEK293 cells assessed as inhibition of icilin-induced increase in intracellular calcium concentration at 200 uM preincubated for 5 mins before icilin treatment by fluorimetric test
[5] = molecular target: Transient receptor potential cation channel subfamily A member 1 (Rattus norvegicus) (UniProt Q6RI86); test: Agonist activity at rat recombinant TRPA1 receptor expressed in HEK293 cells assessed as increase in intracellular calcium concentration by fluorimetric test in presence of TRP channel blocker ruthenium red
[6] = molecular target: Transient receptor potential cation channel subfamily M member 8 (Rattus norvegicus) (UniProt Q8R455); test: Antagonist activity at rat recombinant TRPM8 receptor expressed in HEK293 cells assessed as inhibition of icilin-induced increase in intracellular calcium concentration at 200 uM preincubated […] before icilin treatment by fluorimetric test
[7] = molecular target: Transient receptor potential cation channel subfamily A member 1 (Rattus norvegicus, UniProt Q6RI86); test: Agonist activity at rat recombinant TRPA1 receptor expressed in HEK293 cells assessed as increase in intracellular calcium concentration by fluorimetric test
[8] = molecular target: Transient receptor potential cation channel subfamily A member 1 (Rattus norvegicus) (UniProt Q6RI86); test: Antagonist activity at rat recombinant TRPA1 receptor expressed in HEK293 cells assessed as inhibition of allylisothiocyanate-induced increase in intracellular calcium concentration preincubated for 5 mins by fluorimetric test

Sequence of Transient receptor potential cation channel subfamily M member 8 (Rattus norvegicus) (Q8R455 whole entry, looked up): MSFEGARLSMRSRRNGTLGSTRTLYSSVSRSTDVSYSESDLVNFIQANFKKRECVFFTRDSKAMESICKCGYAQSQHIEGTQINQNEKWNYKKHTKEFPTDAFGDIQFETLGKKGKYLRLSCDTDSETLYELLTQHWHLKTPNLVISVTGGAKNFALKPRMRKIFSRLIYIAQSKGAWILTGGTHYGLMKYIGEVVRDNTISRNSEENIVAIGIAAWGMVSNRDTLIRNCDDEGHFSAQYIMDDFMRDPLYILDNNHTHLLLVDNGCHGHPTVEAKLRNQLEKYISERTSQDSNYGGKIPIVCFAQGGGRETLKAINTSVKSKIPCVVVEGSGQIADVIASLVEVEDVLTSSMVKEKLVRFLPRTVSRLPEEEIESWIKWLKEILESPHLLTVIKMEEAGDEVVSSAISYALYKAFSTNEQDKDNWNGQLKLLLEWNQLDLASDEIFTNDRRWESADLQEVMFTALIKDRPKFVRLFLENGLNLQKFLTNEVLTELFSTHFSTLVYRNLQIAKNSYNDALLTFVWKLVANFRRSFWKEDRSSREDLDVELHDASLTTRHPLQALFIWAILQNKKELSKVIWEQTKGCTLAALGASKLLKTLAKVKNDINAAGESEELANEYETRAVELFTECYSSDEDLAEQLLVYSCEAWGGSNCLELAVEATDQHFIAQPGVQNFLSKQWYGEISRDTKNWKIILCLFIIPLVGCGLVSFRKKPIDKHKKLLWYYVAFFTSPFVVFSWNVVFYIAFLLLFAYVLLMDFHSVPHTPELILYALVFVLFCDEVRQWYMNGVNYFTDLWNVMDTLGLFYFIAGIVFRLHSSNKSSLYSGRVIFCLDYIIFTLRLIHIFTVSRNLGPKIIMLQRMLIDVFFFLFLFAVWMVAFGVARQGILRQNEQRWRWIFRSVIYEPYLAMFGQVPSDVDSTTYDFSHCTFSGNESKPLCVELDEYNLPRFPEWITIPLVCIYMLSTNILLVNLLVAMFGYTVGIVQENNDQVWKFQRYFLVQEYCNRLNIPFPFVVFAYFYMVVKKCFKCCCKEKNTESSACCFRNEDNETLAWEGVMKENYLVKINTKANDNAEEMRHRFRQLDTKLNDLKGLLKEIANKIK
Sequence of Transient receptor potential cation channel subfamily A member 1 (Q6RI86 whole entry): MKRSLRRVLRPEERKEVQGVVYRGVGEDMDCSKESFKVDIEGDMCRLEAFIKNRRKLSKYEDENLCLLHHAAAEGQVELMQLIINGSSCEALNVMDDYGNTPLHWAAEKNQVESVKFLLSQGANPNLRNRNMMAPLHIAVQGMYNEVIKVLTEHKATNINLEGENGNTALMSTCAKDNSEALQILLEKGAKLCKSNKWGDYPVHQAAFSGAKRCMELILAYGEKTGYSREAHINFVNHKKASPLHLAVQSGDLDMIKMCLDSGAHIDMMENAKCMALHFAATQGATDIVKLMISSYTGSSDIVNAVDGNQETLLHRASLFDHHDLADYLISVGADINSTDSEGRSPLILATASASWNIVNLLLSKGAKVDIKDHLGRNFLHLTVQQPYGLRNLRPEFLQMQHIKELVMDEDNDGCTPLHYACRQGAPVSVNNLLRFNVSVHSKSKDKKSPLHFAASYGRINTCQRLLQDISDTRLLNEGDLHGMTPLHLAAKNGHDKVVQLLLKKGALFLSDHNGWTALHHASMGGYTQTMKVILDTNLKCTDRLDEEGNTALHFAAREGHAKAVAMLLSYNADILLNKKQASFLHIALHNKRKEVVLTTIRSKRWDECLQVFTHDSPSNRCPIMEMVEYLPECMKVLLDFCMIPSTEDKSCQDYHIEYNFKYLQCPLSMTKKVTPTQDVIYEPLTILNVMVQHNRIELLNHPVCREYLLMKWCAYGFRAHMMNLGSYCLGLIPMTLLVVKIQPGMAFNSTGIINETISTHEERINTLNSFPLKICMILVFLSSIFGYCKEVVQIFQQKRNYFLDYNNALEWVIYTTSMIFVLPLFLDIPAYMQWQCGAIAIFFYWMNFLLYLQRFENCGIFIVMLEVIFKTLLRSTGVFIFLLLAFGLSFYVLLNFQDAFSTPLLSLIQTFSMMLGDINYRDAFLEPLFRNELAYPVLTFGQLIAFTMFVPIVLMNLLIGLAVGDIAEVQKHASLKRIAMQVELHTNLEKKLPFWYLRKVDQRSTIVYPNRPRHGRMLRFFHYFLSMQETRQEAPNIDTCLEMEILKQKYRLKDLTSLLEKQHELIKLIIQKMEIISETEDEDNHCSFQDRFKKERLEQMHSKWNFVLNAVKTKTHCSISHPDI
Sequence of Transient receptor potential cation channel subfamily A member 1 (Rattus norvegicus) (Q6RI86 whole entry): as above
Sequence of Transient receptor potential cation channel subfamily M member 8 (Q8R455 whole entry): as the sequence (Q8R455 whole entry, looked up) above

EC50 [1] | Activity [2] | SMILES | Efficacy [3] | inhibition [4] | Activity [5] | Activity [6] | EC50 ([7]; read-out: EC50) | EC50 ([7]; read-out: pEC50 (converted)) | Activity [8]
190 nM | Dose-dependent effect | O=C1NC(c2cccc([N+](=O)[O-])c2)=CCN1c1ccccc1O [ICILLIN] |  |  |  |  |  |  | 
 |  | C=C(C)C1CC=C(C=O)CC1 (stereo not given) [PERILLALDEHYDE] | 74.6% | 64.3% | inactive | Active | 41 µM | 19.5 µM | 
 |  | CC(C)CCC(=O)c1ccoc1 [PERILLAKETONE] | 181% | 39.3% | inactive | Active | 19.7 µM | 40.7 µM | Active
